Measured values from PMC10454728, “A Comparative Study on the Lysosomal Cation Channel TMEM175 Using Automated Whole-Cell Patch-Clamp, Lysosomal Patch-Clamp, and Solid Supported Membrane-Based Electrophysiology: Functional Characterization and High-Throughput Screening Assay Development” (International Journal of Molecular Sciences, 2023).

What was measured:
[1] = test system: control lysosomes expressing endogenous TMEM175; experiment: SSME off-target compound effects on control lysosomes (SURFE2R 96SE); type: biochemical, human
Text: ; (A) Dose-response curves for SC-79; (B) Dose-response curves for cluster 1 compounds showing similar effects with all three technologies; (C) Dose-response curves for cluster 2 compounds showing no activity in LPC, but higher activity in APC; (D) Dose-response curves for cluster 3 compounds showing high activity in LPC, but lower activity in APC; For all assay technologies, datapoints were normalized to the current recorded before compound addition and averaged across at least N = 3 individual experiments. For clarity reasons, the SEM is not shown; the average relative SEM after averaging datapoints recorded with two highest compound concentrations is 35.6% for LPC data and 2.9% for SSME data. The APC data were acquired using a voltage application protocol distinct from the one depicted in Figure 7B, as described in the Methods section. Datasets were not corrected for artifacts (as observed in SSME) or off-target compound effects. For SSME data, we indicate the difference in the peak current when applying the four highest concentrations of a compound to control lysosomes (to assess off-target effects) compared to the current recorded with TMEM175 lysosomes prior to compound addition. […] Considerable off-target compound effects are observed when the given percentage approaches the percentage of enhancement recorded with the TMEM175 sample at the given compound concentration. […] . When an EC50 value was determined from the fit, it is highlighted by a vertical dotted line. […]
We also investigated the effect of the eight test compounds on the artifact currents recorded with control lysosomes using the SURFE^2R 96SE.
Artifact currents are typically in the range of −1 nA, while TMEM175 sample currents are +4 nA (Figure 1K). […] This corresponds to 3% to 30% of the current recorded with the TMEM175 sample in the absence of the compound. […]
a. For each single well, we performed an in-well normalization: the artifact corrected peak current obtained using a given condition is devided by the artifact corrected reference peak current recorded within the same well. b. […]

TMEM175 [2] = biological target: T1, TMEM175 (Homo sapiens, UniProt Q9BSA9); experiment: SSME K+ flux compound assay on purified lysosomes overexpressing TMEM175 (SURFE2R 96SE); type: biochemical
T1 sequence (Q9BSA9 1-504): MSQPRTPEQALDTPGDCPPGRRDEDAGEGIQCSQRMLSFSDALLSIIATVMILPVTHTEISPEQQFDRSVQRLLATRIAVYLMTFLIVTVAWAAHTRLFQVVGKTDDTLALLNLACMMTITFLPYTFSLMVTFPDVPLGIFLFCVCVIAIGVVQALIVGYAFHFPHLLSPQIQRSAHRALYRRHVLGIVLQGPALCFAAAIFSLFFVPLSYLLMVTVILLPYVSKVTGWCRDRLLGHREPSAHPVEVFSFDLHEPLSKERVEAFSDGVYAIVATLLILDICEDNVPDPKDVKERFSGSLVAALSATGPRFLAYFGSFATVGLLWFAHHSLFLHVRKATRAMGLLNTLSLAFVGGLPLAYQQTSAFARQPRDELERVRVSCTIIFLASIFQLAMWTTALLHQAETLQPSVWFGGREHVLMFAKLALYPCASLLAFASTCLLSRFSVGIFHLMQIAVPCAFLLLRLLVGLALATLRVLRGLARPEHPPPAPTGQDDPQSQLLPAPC

TMEM175 [3] = biological target: T1, TMEM175; experiment: SSME K+ flux on TMEM175 lysosomes (SURFE2R N1): pH, pH gradient, intra-lysosomal application
Experimental: A solution exchange of 50 mM Na^+ against 50 mM K^+ was used to stimulate TMEM175. Datasets for each pH were measured on different sensors. […] Average peak currents and SEM, recorded from N = 5 sensors, are shown. Imax was fixed in the subsequent fitting with the equation I = Imax − (Imax − Imin)/(1 + (c/EC50)^n). […] Both datasets—symmetrical pH 7.6 (green) and pH gradient (blue) conditions—were recorded on the same sensor, with N = 5 sensors in total. […] Currents in the presence and the absence of a pH gradient were recorded with different sensors. Each sensor was used for four measurements in the following sequence: in the absence of compound, in the presence of 100 nM compound, in the presence of 10 µM compound, and in the absence of compound (wash-out). Datasets were normalized to the peak current recorded in the absence of compound before averaging. […] Sensors were prepared with TMEM175 lysosomes that were pre-loaded via 1:10 dilution in zinc containing non-activating solution, followed by 10 pulses of sonication as described in the Methods section (Section 4.2.5). […] The three different experimental conditions shown in one graph were applied on the same sensor. Average peak currents and SD from N = 4 sensors are shown, and no normalization was applied.
To test whether the pH is a relevant parameter affecting the efficacy of compounds, we tested the effect of compounds on TMEM175 currents under different pH conditions using the SURFE^2R N1 (Figure 9B–D).
To examine this, we conducted SSME experiments utilizing lysosomes that were pre-loaded with varying concentrations of zinc (Figure 9E). This enabled us to investigate the effects of zinc on TMEM175 activity when it interacts with the lysosomal side of TMEM175, closely simulating the conditions observed in whole-cell APC experiments (Figure 7E). […]
Datasets recorded with the SURFE^2R N1 are usually obtained with the same sensor, i.e., all concentration-dependent datapoints are obtained by sequential measurements. […]

`CCCCC1(C2CCCC2)Cc2cc(OCCCC(=O)O)c(Cl)c(Cl)c2C1=O` (centres unmarked) [DCPIB] was tested, and the “Off-target effect of DCPIB on control lysosomes (SURFE2R 96SE)” value ([1]; 20 µM and below) was “did not have an effect”, the “Off-target effect of DCPIB on control lysosomes (SURFE2R 96SE)” value ([1]; 60 µM DCPIB, Figure S5) was “off-target inhibition” and the “Effect of K+ concentration (driving force) on apparent EC50” value (TMEM175 [2]; 2, 5, 10, 50 mM K+, 3, 10, 30 µM DCPIB) was “not affected”.

Molecule `CCOC(=O)C1=C(N)Oc2ccc(Cl)cc2C1C(C#N)C(=O)OCC` (centres unmarked) [SC-79] has an EC50 (TMEM175 [2]; 50 mM K+ jump, not corrected for artifacts or off-target effects) of 2.9 ± 2.3 µM.

With `[Cl-].[Cl-].[Zn+2]` [Zn, ZnCl2] the “Off-target effect of zinc on control lysosomes (SURFE2R 96SE)” value ([1]; in-plate control, Figure S5) was “small off-target inhibition”, the “Effect at 50 µM, SSME” value (TMEM175 [3]; 50 µM zinc, lysosomal side (similar to external application)) was “did not observe any effect” and the IC50 (TMEM175 [3]; read-out: IC50, intra-lysosomal application, SSME (SURFE2R N1), lysosomes pre-loaded with zinc, zinc only inside) was 700 ± 300 µM.

In the case of `Nc1ccncc1` [4-AP, 4-aminopyridine], the “Effect of 4-AP, SSME (SURFE2R N1)” value (TMEM175 [3]; pH 4.0 (no TMEM175 activity at this pH)) is reported as “no effect”.
